The test system of this assay is MCH receptors. Briefly: MCH receptor activity class (method not given).
Where [1] appears, read: MCH receptor, class by percent of control at 10^-7 M or IC50.
Where [2] appears, read: class by percent of control at 10^-7 M or IC50.
[3] abbreviates: class by percent of control at 10^−7 M or IC50.
The mark [4] stands for this setting: activity class 1-3: percent of control at 10^-7 M or IC50.

In the case of `CC(Oc1ccccc1)C(=O)N[C@H]1CC[C@@H](Nc2cc(N(C)C)c3ccccc3n2)CC1` (relative stereo) [compound 49, N-(cis-4-{[4-(dimethylamino)quinolin-2-yl]amino}cyclohexyl)-2-phenoxypropanamide], the class under setting [1] was 1 (Class 1: The value of percent of control at 10^−7 M was less than 40% or the value of IC50 was less than 50 nM.).
On to `CN(C)c1nc(N[C@H]2CC[C@@H](NC(=S)Nc3ccc(Cl)cc3C(F)(F)F)CC2)nc2c1CCCC2` [Example 1774], for which, under setting [2], the class is recorded as 2 (Class 2: The value of percent of control at 10^−7 M was from 40% to 60% or the value of IC′50 was from 50 nM to 200 nM.).
Turning to `COc1ccc(C2(C(=O)N[C@H]3CC[C@@H](Nc4ncc(C)c(N(C)C)n4)CC3)CC2)cc1` [compound 2875], the class under setting [3] is on record as 1 (Class 1: The value of percent of control at 10^−7 M was less than 40% or the value of IC50 was less than 50 nM.).
`CCCCCC(=O)NC[C@H]1CC[C@@H](Nc2nc3c(c(N(C)C)n2)CCCC3)CC1` [compound 602]: the class under setting [2] is recorded as 3 (Class 3 The value of percent of control at 10^−7 M was more than 60% or the value of IC50 was more than 200 nM.).
Still for that read-out and setting: with `CC(C)c1cc(Br)c(NC(=O)N[C@H]2CC[C@@H](Nc3cc(N(C)C)c4ccccc4n3)CC2)c(Br)c1` [compound 2162] the figure was 3 (Class 3 The value of percent of control at 10^−7 M was more than 60% or the value of IC50 was more than 200 nM.).
For `CN(C)c1cc(N[C@H]2CC[C@@H](NC(=O)Oc3ccc(Br)cc3)CC2)nc2ccccc12` [compound 1543], the class under setting [4] is on record as 3 (Class 3 The value of percent of control at 10^−7 M was more than 60% or the value of IC50 was more than 200 nM.).
For `CN(C)c1cc(N[C@H]2CC[C@@H](NC(=O)c3ccc(-c4ccc(Cl)cc4)o3)CC2)nc2ccccc12` [compound 697], under setting [2], the class is reported as 3 (Class 3 The value of percent of control at 10^−7 M was more than 60% or the value of IC50 was more than 200 nM.).
For the compound `CSc1ccc(CN[C@H]2CC[C@@H](Nc3nccc(N(C)C)n3)CC2)cc1` [compound 1239], under setting [2], the class is recorded as 3 (Class 3 The value of percent of control at 10^−7 M was more than 60% or the value of IC50 was more than 200 nM.).
Still for that read-out and setting: the value for `CN(C)c1ccnc(N[C@H]2CC[C@@H](NC(=O)c3cccc4ccccc34)CC2)n1` [compound 327] was 3 (Class 3 The value of percent of control at 10^−7 M was more than 60% or the value of IC50 was more than 200 nM.).
On to `CN(C)c1cc(N[C@H]2CC[C@@H](NC(=O)c3ccc(F)cc3F)CC2)nc2ccccc12` [compound 126, N-(cis-4-{[4-(dimethylamino)quinolin-2-yl]amino}cyclohexyl)-2,4-difluorobenzamide], for which the class under setting [1] was 3 (Class 3 The value of percent of control at 10^−7 M was more than 60% or the value of IC50 was more than 200 nM.).
As for `CN(C)c1nc(N[C@H]2CC[C@@H](CNC(=O)CC3=CCCCC3)CC2)nc2c1CCCC2` [compound 1079], the class (activity class per percent of control at 10^-7 M or IC50) is reported as 3 (Class 3 The value of percent of control at 10^−7 M was more than 60% or the value of IC50 was more than 200 nM.).
`COc1ccc(OC)c(CN[C@H]2CC[C@@H](Nc3nccc(N(C)C)n3)CC2)c1` [compound 1208]: the class under setting [2] is listed as 3 (Class 3 The value of percent of control at 10^−7 M was more than 60% or the value of IC50 was more than 200 nM.).
In the case of `CN(C)c1nc(N[C@H]2CC[C@@H](NC(=O)Nc3ccc(Cl)cc3Cl)CC2)nc2c1CCCC2` [compound 1819], the class under setting [2] is 3 (Class 3 The value of percent of control at 10^−7 M was more than 60% or the value of IC50 was more than 200 nM.).
The same measure, in the same setting: with `CN(C)c1nc(N[C@H]2CC[C@@H](NC(=O)Nc3cccc(Oc4ccccc4)c3)CC2)nc2c1CCCC2` [compound 1875] the figure was 3 (Class 3 The value of percent of control at 10^−7 M was more than 60% or the value of IC50 was more than 200 nM.); with `CN(C)c1cc(N[C@H]2CC[C@@H](NC(=O)c3ccc(I)o3)CC2)nc2ccccc12` [compound 680, N-(cis-4-{[4-(dimethylamino)quinolin-2-yl]amino}cyclohexyl)-5-iodo-2-furamide], 1 (Class 1: The value of percent of control at 10^−7 M was less than 40% or the value of IC50 was less than 50 nM.); with `COc1ccc(CNC(=O)N[C@H]2CC[C@@H](Nc3nc4c(c(N(C)C)n3)CCCC4)CC2)cc1` [compound 1835], 3 (Class 3 The value of percent of control at 10^−7 M was more than 60% or the value of IC50 was more than 200 nM.).
As for `Cc1cc(N(C)C)nc(N[C@H]2CC[C@@H](NC(=O)c3ccc(F)c(F)c3)CC2)n1` [compound 2988, N-(cis-4-{[4-(dimethylamino)-6-methylpyrimidin-2-yl]amino}cyclohexyl)-3,4-difluorobenzamide], the class under setting [3] was 1 (Class 1: The value of percent of control at 10^−7 M was less than 40% or the value of IC50 was less than 50 nM.).
As to `CN(C)c1nc(N[C@H]2CC[C@@H](NC(=O)c3ccccc3SC(F)F)CC2)nc2c1CCCC2` [compound 518], under “class 1-3 by percent of control at 10^-7 M or IC50”, the class is listed as 3 (Class 3 The value of percent of control at 10^−7 M was more than 60% or the value of IC50 was more than 200 nM.).
As for `CN(C)c1ccnc(N[C@H]2CC[C@@H](NC(=O)c3ccc(F)c(C(F)(F)F)c3)CC2)n1` [compound 324, N-(cis-4-{[4-(dimethylamino)pyrimidin-2-yl]amino}cyclohexyl)-4-fluoro-3-(trifluoromethyl)benzamide], the class under setting [2] is listed as 1 (Class 1: The value of percent of control at 10^−7 M was less than 40% or the value of IC50 was less than 50 nM.).
In the case of `Cc1cnc(NC[C@H]2CC[C@@H](NC(=O)c3ccc(Br)cc3)CC2)nc1N(C)C` [compound 2724, 4-bromo-N-[cis-4-({[4-(dimethylamino)-5-methylpyrimidin-2-yl]amino}methyl)cyclohexyl]benzamide], under setting [3], the class was 3 (Class 3 The value of percent of control at 10^−7 M was more than 60% or the value of IC50 was more than 200 nM.).
On to `CN(C)c1ccnc(N[C@H]2CC[C@@H](CNC(=O)Oc3cccc(C(F)(F)F)c3)CC2)n1` [compound 1642], for which the class under setting [4] is given as 3 (Class 3 The value of percent of control at 10^−7 M was more than 60% or the value of IC50 was more than 200 nM.).
On to `CN(C)c1cc(N[C@H]2CC[C@@H](CNCc3ccsc3)CC2)nc2ccccc12` [compound 1183], for which, under setting [2], the class was 3 (Class 3 The value of percent of control at 10^−7 M was more than 60% or the value of IC50 was more than 200 nM.).
Same read-out and setting: with `CN(C)c1ccnc(N[C@H]2CC[C@@H](NCc3coc4ccc(Cl)cc4c3=O)CC2)n1` [compound 1234] the figure was 3 (Class 3 The value of percent of control at 10^−7 M was more than 60% or the value of IC50 was more than 200 nM.).
As for `CN(C)c1nc(N[C@H]2CC[C@@H](CNC(=O)Nc3ccc(C#N)cc3)CC2)nc2c1CCCC2` [compound 2480], the class (MCH receptor activity class 1-3 (percent of control at 10^-7 M or IC50)) is 3 (Class 3 The value of percent of control at 10^−7 M was more than 60% or the value of IC50 was more than 200 nM.).
With `CN(C)c1cc(N[C@H]2CC[C@@H](CNCCCCCCCCc3ccccc3)CC2)nc2ccccc12` [compound 1467], the class under setting [2] was 3 (Class 3 The value of percent of control at 10^−7 M was more than 60% or the value of IC50 was more than 200 nM.).
As for `COC(=O)c1ccccc1Sc1nc2sccn2c1CN[C@H]1CC[C@@H](Nc2nccc(N(C)C)n2)CC1` [compound 1237], the class under setting [2] was 3 (Class 3 The value of percent of control at 10^−7 M was more than 60% or the value of IC50 was more than 200 nM.).

The record behind these values is patent US20050197350A1, “Novel quinoline, tetrahydroquinazoline, and pyrimidine derivatives and methods of treatment related to the use thereof” (TAISHO PHARMACEUTICAL CO., LTD., priority 2003, published 2005).
